Results reported in patent US20230212144A1, “5-MEMBERED HETEROARYL DERIVATIVE CONTAINING AT LEAST ONE N, AND PHARMACEUTICAL COMPOSITION FOR PREVENTING OR TREATING MENTAL DISORDERS, CONTAINING SAME AS ACTIVE INGREDIENT” (DAEGU-GYEONGBUK MEDICAL INNOVATION FOUNDATION, priority 2020, published 2023).

Key:
[1] = molecular target: norepinephrine transporter (NET) (Homo sapiens, UniProt P23975); test: Norepinephrine reuptake inhibition, [3H]-NE, cells transfected with NE transporter cDNA; conditions: for Triple reuptake inhibition (Ratio %) NET: compound 1 μM, relative to control without compound (100%), lower value = stronger inhibition
Procedure: (§1) After removing the medium, each compound of Examples or Comparative Examples diluted to 1 μM in uptake buffer was added to a concentration of 200 μL/well and cultured at 37° C. for 15 minutes. 100 μL of uptake buffer containing 20-30 nM [3H]-DA was added and cultured at 37° C. for 5 minutes. The reaction solution was quickly removed and washed three times with 1 mL ice-cold uptake buffer. After dissolving the resultant in 1% SDS (0.5 mL), the degree of binding of radioisotope-labeled dopamine to the transporter was measured.
(§2) For norepinephrine(NE) and serotonin(5-HT), the degree of binding of radioisotope-labeled norepinephrine or serotonin to the transporter was measured in the same manner as above, except that cells transfected with NE or 5-HT transporter cDNA were used and [3H]-NE or [3H]-5-HT was used as a substrate.
(§3) In addition, when evaluating the reuptake inhibitory effect on dopamine, norepinephrine, and serotonin, the same method was performed without treating each compound of Examples or Comparative Examples as a control, the degree of binding of radioisotope-labeled dopamine, norepinephrine, and serotonin to the transporter was measured, and by using this as a reference (100%), the triple reuptake inhibitory effect was evaluated as a relative ratio (Ratio %). That is, in the control group, the binding of dopamine, norepinephrine, and serotonin to transporters is not inhibited, but when each compound of Examples is treated and thus the binding is inhibited, the Ratio % value decreases.

[2] = molecular target: dopamine transporter (DAT) (Homo sapiens, UniProt Q01959); test: Dopamine reuptake inhibition, [3H]-DA, HEK-293 cells transfected with dopamine transporter cDNA; conditions: for Triple reuptake inhibition (Ratio %) DAT: compound 1 μM, relative to control without compound (100%), lower value = stronger inhibition
Procedure: as §1, §3

[3] = molecular target: serotonin transporter (SERT) (Homo sapiens, UniProt P31645); test: Serotonin reuptake inhibition, [3H]-5-HT, cells transfected with 5-HT transporter cDNA; conditions: for Triple reuptake inhibition (Ratio %) SERT: compound 1 μM, relative to control without compound (100%), lower value = stronger inhibition
Sequence of serotonin transporter (SERT) (P31645 whole entry, species assumed): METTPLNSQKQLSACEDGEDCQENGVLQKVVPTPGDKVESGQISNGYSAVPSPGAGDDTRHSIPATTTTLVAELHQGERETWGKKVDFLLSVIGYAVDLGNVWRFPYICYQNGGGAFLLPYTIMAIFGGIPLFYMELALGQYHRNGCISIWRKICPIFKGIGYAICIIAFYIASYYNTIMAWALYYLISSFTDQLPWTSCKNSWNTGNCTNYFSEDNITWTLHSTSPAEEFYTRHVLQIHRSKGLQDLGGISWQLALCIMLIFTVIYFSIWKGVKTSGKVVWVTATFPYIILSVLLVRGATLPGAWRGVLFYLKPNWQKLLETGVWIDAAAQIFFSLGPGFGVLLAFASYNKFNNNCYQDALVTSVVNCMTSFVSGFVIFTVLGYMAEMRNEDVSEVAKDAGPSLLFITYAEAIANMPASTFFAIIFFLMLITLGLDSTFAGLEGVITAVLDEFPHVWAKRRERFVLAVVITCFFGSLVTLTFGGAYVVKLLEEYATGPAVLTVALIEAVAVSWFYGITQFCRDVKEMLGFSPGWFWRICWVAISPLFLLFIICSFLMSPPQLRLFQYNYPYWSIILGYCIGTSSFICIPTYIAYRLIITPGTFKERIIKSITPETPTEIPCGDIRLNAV
Procedure: as §1, §2, §3

Sequence of dopamine transporter (DAT) (Q01959 whole entry, species assumed): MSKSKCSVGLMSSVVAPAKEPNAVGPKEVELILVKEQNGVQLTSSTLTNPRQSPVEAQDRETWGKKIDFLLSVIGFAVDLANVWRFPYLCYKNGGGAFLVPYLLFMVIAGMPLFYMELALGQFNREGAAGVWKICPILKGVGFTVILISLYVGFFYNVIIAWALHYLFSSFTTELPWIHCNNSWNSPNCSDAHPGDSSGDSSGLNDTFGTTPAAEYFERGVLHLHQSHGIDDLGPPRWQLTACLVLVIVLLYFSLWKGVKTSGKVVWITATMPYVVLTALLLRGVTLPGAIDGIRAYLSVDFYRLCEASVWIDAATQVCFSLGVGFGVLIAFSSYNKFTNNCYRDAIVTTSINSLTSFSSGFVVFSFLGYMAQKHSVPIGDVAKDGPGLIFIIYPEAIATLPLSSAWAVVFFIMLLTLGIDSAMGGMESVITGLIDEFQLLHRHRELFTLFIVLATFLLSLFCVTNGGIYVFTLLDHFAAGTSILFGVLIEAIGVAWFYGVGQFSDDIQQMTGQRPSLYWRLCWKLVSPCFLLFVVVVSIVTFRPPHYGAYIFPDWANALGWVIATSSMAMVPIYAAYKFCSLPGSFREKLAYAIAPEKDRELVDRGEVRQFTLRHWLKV
Sequence of norepinephrine transporter (NET) (P23975 whole entry, species assumed): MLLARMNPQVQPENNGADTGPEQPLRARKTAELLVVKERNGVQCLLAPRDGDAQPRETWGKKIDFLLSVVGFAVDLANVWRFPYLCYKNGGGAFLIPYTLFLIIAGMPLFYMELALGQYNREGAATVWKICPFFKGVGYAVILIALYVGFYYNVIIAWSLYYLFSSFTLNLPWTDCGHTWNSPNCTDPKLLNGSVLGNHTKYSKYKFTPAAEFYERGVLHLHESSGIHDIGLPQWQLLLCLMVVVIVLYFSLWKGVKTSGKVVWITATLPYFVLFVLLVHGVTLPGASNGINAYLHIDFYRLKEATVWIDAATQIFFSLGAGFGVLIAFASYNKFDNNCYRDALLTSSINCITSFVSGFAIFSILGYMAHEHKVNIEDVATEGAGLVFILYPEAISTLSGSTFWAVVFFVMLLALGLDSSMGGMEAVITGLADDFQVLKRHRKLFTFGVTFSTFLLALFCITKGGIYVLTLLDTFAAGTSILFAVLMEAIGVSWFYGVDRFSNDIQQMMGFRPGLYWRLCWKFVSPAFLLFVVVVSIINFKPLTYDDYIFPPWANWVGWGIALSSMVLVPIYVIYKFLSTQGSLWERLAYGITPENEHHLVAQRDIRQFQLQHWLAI

| SMILES | Triple reuptake inhibition (Ratio %) NET [1] [%] | Triple reuptake inhibition (Ratio %) DAT [2] [%] | Triple reuptake inhibition (Ratio %) SERT [3] [%] | IC50 [1] [nM] | IC50 [2] [nM] | IC50 [3] [nM] |
| --- | --- | --- | --- | --- | --- | --- |
| FC(F)(F)Oc1ccc(-c2nnc(CN3CCC(Cc4ccc(Cl)c(Cl)c4)CC3)[nH]2)cc1 [Example 61, 4-(3,4-dichlorobenzyl)-1-((5-(4-(trifluoromethoxy)phenyl)-4H-1,2,4-triazol-3-yl)methyl)piperidine] | 48.25 | 59.39 | 82.77 | – | – | – |
| FC(F)(F)c1ccc(-c2nnc(CN3CCC(Cc4ccc(Cl)c(Cl)c4)CC3)[nH]2)cc1 [Example 62, 4-(3,4-dichlorobenzyl)-1-((5-(4-(trifluoromethyl)phenyl)-4H-1,2,4-triazol-3-yl)methyl)piperidine] | 36.41 | 52.96 | 79.73 | – | – | – |
| COC(=O)c1ccc(-c2nnc(CN3CCC(Cc4ccccc4)CC3)[nH]2)cc1N [Example 63, methyl 2-amino-4-(5-((4-benzylpiperidin-1-yl)methyl)-4H-1,2,4-triazol-3-yl)benzoate] | 27.25 | 26.54 | 61.10 | 327 | 221 | 1840 |
| Fc1ccc2[nH]c(-c3nnc(CN4CCN(Cc5ccccc5)CC4)[nH]3)cc2c1 [Example 64, 2-(5-((4-benzylpiperazin-1-yl)methyl)-4H-1,2,4-triazol-3-yl)-5-fluoro-1H-indole] | 64.96 | 32.65 | 91.98 | – | – | – |
| Clc1ccc2[nH]c(-c3nnc(CN4CCN(Cc5ccccc5)CC4)[nH]3)cc2c1 [Example 65, 2-(5-((4-benzylpiperazin-1-yl)methyl)-4H-1,2,4-triazol-3-yl)-5-chloro-1H-indole] | 67.11 | 28.61 | 92.53 | – | – | – |
